This is an account of results in patent US20060014644A1, “Phenylsulfonyl ureas, process for their preparation and their use as herbicides and plant growth regulators” (Hoechst Schering AgrEvo GmbH, priority 1999, published 2006).

Experiment [1] concerns harmful plants such as Sinapis alba, Echinochloa crus-galli, Lolium multiflorum, Chrysanthemum segetum, Setaria spp., Abutilon theophrasti, Amaranthus …. Kind of experiment: Post-emergence effect on weeds (greenhouse pot test, visual scoring). Conditions: three-leaf stage, application rate of 0.3 kg and less of active substance per hectare, scored visually after about 3 to 4 weeks by comparison with untreated controls. The experiment is classed as in vivo, monocotyledonous and dicotyledonous weeds. As for the experimental part: 2. Post-Emergence Effect on Weeds
Seeds or rhizome pieces of monocotyledonous and dicotyledonous weeds were placed in sandy loam soil in plastic pots, covered with soil and grown in a greenhouse under good growth conditions. Three weeks after sowing, the test plants were treated at the three-leaf stage. The compounds according to the invention which were formulated as wettable powders or emulsion concentrates were sprayed, at various dosages, onto the green parts of the plants at an application rate of 600 to 800 l of water/ha (converted). After the test plants had remained in the greenhouse for about 3 to 4 weeks under ideal growth conditions, the effect of the preparations was scored visually by comparison with untreated controls. The agents according to the invention also have good herbicidal activity post-emergence against a broad spectrum of economically important Weed grasses and broad-loafed weeds.

Experiment [2] relates to harmful plants such as Sinapis alba, Chrysanthemum segetum, Avena sativa, Stellaria media, Echinochloa crus-galli, Lolium multiflorum, Setaria spp., Abutilon …. Kind of experiment: Pre-emergence effect on weeds (greenhouse pot test, visual scoring). Type of experiment: in vivo, monocotyledonous and dicotyledonous weed plants. Conditions: application rate of 0.3 kg and less of active substance per hectar, scored visually after 3 to 4 weeks by comparison with untreated controls. From the text:
1. Pre-Emergence Effect on Weeds
Seeds or rhizome pieces of monocotyledonous and dicotyledonous weed plants were placed in sandy loam soil in cardboard pots and covered with soil. The compounds according to the invention which were formulated in the form of wettable powders or emulsion concentrates were then applied to the surface of the soil cover in the form of aqueous suspensions or emulsions at an application rate of 600 to 800 l of water/ha (converted), in various dosages.
After the treatment, the pots were placed in a greenhouse and kept under good growth conditions for the weeds. After the test plants had emerged, the damage to the plants or the negative effect on the emergence was scored visually after a test period of 3 to 4 weeks by comparison with untreated controls. As shown by the test results, compounds according to the invention have good herbicidal pre-emergence activity against a broad spectrum of weed grasses and broad-leafed weeds.

Turning to `COC(=O)c1c(N(C)C)cccc1S(=O)(=O)NC(=O)Nc1nc(OC)cc(OC)n1` [Example 1-401], the “herbicidal activity against harmful plants, post-emergence” value (from here on “herbicidal activity … post-emergence”) in experiment [1] is “very good herbicidal activity”. In addition, the “herbicidal activity against harmful plants, pre-emergence” value (from here on “herbicidal activity … pre-emergence”) in experiment [2] was “very good herbicidal activity”.
Take `CCOC(=O)c1c(N)cccc1S(=O)(=O)NC(=O)Nc1nc(Cl)cc(OC)n1` [Example 1-55]: the “herbicidal activity … post-emergence” value in experiment [1] was “very good herbicidal activity”. For the same compound, the “herbicidal activity … pre-emergence” value in experiment [2] is listed as “very good herbicidal activity”.
On to `CCOC(=O)c1c(N)cccc1S(=O)(=O)NC(=O)Nc1nc(OC)nc(OC)n1` [Example 1-57], for which the “herbicidal activity … post-emergence” value in experiment [1] is on record as “very good herbicidal activity”. Further, in experiment [2], the “herbicidal activity … pre-emergence” value is reported as “very good herbicidal activity”.
On to `CCNc1cccc(S(=O)(=O)NC(=O)Nc2nc(OC)nc(OC)n2)c1C(=O)OC` [Example 1-135], for which the “herbicidal activity … post-emergence” value in experiment [1] is given as “very good herbicidal activity”. The “herbicidal activity … pre-emergence” value in experiment [2] is “very good herbicidal activity”.
As to `COC(=O)c1c(NC2CC2)cccc1S(=O)(=O)NC(=O)Nc1nc(OC)nc(OC)n1` [Example 1-359], in experiment [1], the “herbicidal activity … post-emergence” value is reported as “very good herbicidal activity”. In addition, the “herbicidal activity … pre-emergence” value in experiment [2] is “very good herbicidal activity”.
For the compound `CCC(C)Nc1cccc(S(=O)(=O)NC(=O)Nc2nc(OC)cc(OC)n2)c1C(=O)OC` (stereo not shown) [Example 1-265], the “herbicidal activity … post-emergence” value in experiment [1] is “very good herbicidal activity”. Moreover, the “herbicidal activity … pre-emergence” value in experiment [2] is recorded as “very good herbicidal activity”.
In the case of `COC(=O)c1c(NCCCC(F)(F)F)cccc1S(=O)(=O)NC(=O)Nc1nc(OC)cc(OC)n1` [Example 1-241], the “herbicidal activity … post-emergence” value in experiment [1] is reported as “very good herbicidal activity”. For the same compound, in experiment [2], the “herbicidal activity … pre-emergence” value is “very good herbicidal activity”.
For the compound `COC(=O)c1c(NCc2ccccc2)cccc1S(=O)(=O)NC(=O)Nc1nc(OC)cc(OC)n1` [Example 1-381], the “herbicidal activity … post-emergence” value in experiment [1] is on record as “very good herbicidal activity”. Moreover, the “herbicidal activity … pre-emergence” value in experiment [2] was “very good herbicidal activity”.
